Columns and labels:
[1] = target: T1, FGFR35 (Homo sapiens, UniProt P22607); assay: FGFR35 (cellular assay), proliferation of Ba/F3-TEL-FGFR35 cells; type: cell-based; set-up: fused on or other part: N-terminal part of TEL (ETV6), which acts as the oligomerising partner; it is fused to the part of FGFR3 that carries the kinase; P41212 (Transcription factor ETV6); conditions: 48 hours, read-out: IC50 for the FGFR35 cellular assay
Procedure: Compounds of the invention are tested for their ability to inhibit transformed Ba/F3-TEL-FGFR35 cells proliferation, which is depended on FGFR35 cellular kinase activity. Ba/F3-TEL-FGFR35 are cultured up to 800,000 cells/mL in suspension, with RPMI 1640 supplemented with 10% fetal bovine serum as the culture medium. Cells are dispensed into 384-well format plate at 5000 cell/well in 50 μL culture medium. Compounds of the invention are dissolved and diluted in dimethylsulfoxide (DMSO). Twelve points 1:3 serial dilutions are made into DMSO to create concentrations gradient ranging typically from 10 mM to 0.05 μM. Cells are added with 50 nL of diluted compounds and incubated for 48 hours in cell culture incubator. AlamarBlue® (TREK Diagnostic Systems), which can be used to monitor the reducing environment created by proliferating cells, are added to cells at final concentration of 10%. After additional four hours of incubation in a 37° C. cell culture incubator, fluorescence signals from reduced AlamarBlue® (Excitation at 530 nm, Emission at 580 nm) are quantified on Analyst GT (Molecular Devices Corp.). IC50 values are calculated by linear regression analysis of the percentage inhibition of each compound at 12 concentrations.
Target sequence in this assay (P22607 472-761 limits assumed, change not shown): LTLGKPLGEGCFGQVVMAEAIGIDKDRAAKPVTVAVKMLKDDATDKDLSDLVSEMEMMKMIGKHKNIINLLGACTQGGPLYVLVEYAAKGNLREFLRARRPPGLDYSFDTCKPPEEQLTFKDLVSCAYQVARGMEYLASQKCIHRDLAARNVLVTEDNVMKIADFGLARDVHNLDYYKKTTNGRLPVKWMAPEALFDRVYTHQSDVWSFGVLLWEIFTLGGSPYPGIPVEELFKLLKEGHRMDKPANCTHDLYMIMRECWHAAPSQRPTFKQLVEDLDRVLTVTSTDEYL

[2] = target: PDGFRβ (Homo sapiens, UniProt P09619); assay: Inhibition of PDGFRβ; type: biochemical
Procedure: Compounds selectively inhibiting the proliferation of these BCR-Abl transformed cells are tested for anti-proliferative activity on Ba/F3 cells expressing either wild type or the mutant forms of Bcr-abl. In addition, compounds are assayed to measure their capacity to inhibit FGFR35 (in an enzyme and cellular assay), FLT3, PDGFRβ, trkB, c-SRC, BMX, SGK, Tie2, Lck, JNK2α2, MKK4, c-RAF, MKK6, SAPK2α and SAPK2β kinases.

[3] = target: T2, wild type Bcr-abl (Homo sapiens, UniProt P00519); assay: Antiproliferative effect on cells expressing wild type Bcr-abl; type: cell-based; conditions: cell proliferation
T2 construct: the major C-terminal part (exons 2-11) of the c-abl gene; expressed in transfected cells; host or cells: murine 32D (32D-p210) or Ba/F3 cells; the other entry of the earlier key: BCR (P11274, Breakpoint cluster region protein)
Procedure: 32D-p210 cells are plated into 96 well TC plates at a density of 15,000 cells per well. 50 μL of two fold serial dilutions of the test compound (Cmax is 40 μM) are added to each well (STI571 is included as a positive control). After incubating the cells for 48 hours at 37° C., 5% CO2, 15 μL of MTT (Promega) is added to each well and the cells are incubated for an additional 5 hours. The optical density at 570 nm is quantified spectrophotometrically and IC50 values, the concentration of compound required for 50% inhibition, determined from a dose response curve.
Compounds of the invention are tested for their antiproliferative effect on Ba/F3 cells expressing either wild type or the mutant forms of BCR-Abl (G250E, E255V, T315I, F317L, M351T) that confers resistance or diminished sensitivity to STI571. The antiproliferative effect of these compounds on the mutant-BCR-Abl expressing cells and on the non transformed cells were tested at 10, 3.3, 1.1 and 0.37 μM as described above (in media lacking IL3). The IC50 values of the compounds lacking toxicity on the untransformed cells were determined from the dose response curves obtained as describe above.

[4] = target: T1, FGFR35; assay: FGFR35 (enzymatic assay), HTRF; type: biochemical; set-up: purchased Upstate; conditions: purified FGFR35, 3 μM ATP; read-out: IC50 for the FGFR35 enzyme assay
Procedure: Kinase activity assay with purified FGFR35 (Upstate) is carried out in a final volume of 10 μL containing 0.25 μg/mL of enzyme in kinase buffer (30 mM Tris-HCl pH7.5, 15 mM MgCl2, 4.5 mM MnCl2, 15 μM Na3VO4 and 50 μg/mL BSA), and substrates (5 μg/mL biotin-poly-EY(Glu, Tyr) (CIS-US, Inc.) and 3 μM ATP). Two solutions are made: the first solution of 5 μl contains the FGFR35 enzyme in kinase buffer was first dispensed into 384—format ProxiPlate® (Perkin-Elmer) followed by adding 50 nL of compounds dissolved in DMSO, then 5 μl of second solution contains the substrate (poly-EY) and ATP in kinase buffer was added to each wells. The reactions are incubated at room temperature for one hour, stopped by adding 10 μL of HTRF detection mixture, which contains 30 mM Tris-HCl pH7.5, 0.5 M KF, 50 mM ETDA, 0.2 mg/mL BSA, 15 μg/mL streptavidin-XL665 (CIS-US, Inc.) and 150 ng/mL cryptate conjugated anti-phosphotyrosine antibody (CIS-US, Inc.). After one hour of room temperature incubation to allow for streptavidin-biotin interaction, time resolved florescent signals are read on Analyst GT (Molecular Devices Corp.). IC50 values are calculated by linear regression analysis of the percentage inhibition of each compound at 12 concentrations (1:3 dilution from 50 μM to 0.28 nM).
Target sequence in this assay (P22607 23-806): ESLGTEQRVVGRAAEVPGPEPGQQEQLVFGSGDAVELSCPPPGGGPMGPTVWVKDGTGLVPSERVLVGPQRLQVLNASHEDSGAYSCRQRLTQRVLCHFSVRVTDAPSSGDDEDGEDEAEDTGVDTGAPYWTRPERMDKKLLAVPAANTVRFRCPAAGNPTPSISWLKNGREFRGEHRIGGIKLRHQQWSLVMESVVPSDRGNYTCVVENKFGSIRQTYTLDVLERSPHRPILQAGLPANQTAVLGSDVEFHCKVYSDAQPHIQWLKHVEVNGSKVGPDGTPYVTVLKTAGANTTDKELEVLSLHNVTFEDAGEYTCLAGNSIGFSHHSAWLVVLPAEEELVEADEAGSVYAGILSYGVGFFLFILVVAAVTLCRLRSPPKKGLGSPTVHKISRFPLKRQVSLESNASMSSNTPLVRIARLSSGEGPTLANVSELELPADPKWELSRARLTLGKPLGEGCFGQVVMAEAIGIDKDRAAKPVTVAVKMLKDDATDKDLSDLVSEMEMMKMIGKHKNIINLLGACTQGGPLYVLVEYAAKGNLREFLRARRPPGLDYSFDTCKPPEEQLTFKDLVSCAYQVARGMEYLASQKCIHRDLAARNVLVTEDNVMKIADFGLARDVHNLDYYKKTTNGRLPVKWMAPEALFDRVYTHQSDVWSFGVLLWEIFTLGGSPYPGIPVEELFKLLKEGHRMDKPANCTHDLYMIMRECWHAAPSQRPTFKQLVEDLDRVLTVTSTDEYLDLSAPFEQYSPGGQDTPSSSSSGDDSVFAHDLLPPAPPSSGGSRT

[5] = target: c-Abl (Homo sapiens, UniProt P00519); assay: Inhibitory activity against c-Abl (Example 207); type: biochemical; conditions: Examples 171 to 206
[6] = target: T3, KDR (Homo sapiens, UniProt P35968); assay: Inhibitory activity against KDR (VEGF-R2), in vitro data of Examples 170 and 207; type: biochemical; conditions: 10 μM; Examples 171 to 206; read-out: KDR inhibition at 10 μM
T3 construct: expressed in transfected cells; host or cells: CHO cells
Procedure, shortened: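 KDR tyrosine phosphorylation detected by luminescence after overnight 4° C capture of 20 μg lysate protein with PY20:AP antibody. Lysates came from cells given compound for 2 h at 37° C, then final 20 ng/ml VEGF for 5 min; compound-free medium as control.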

[7] = target: T4, FGFR3 (K650E) (Homo sapiens, UniProt P22607, K650E); assay: Recombinant GST-FGFR-3-K650E tyrosine kinase assay (33P into poly(Glu,Tyr)); type: biochemical; conditions: 10 μM; Examples 171 to 206; read-out: FGFR3 inhibition at 10 μM
T4 construct: amino acids 411-806 of the cytoplasmic domain of human FGFR-3, N-terminally fused to GST; made in house; host or cells: Sf9 insect cells (baculovirus)
T4 sequence (P22607 411-806 K650E): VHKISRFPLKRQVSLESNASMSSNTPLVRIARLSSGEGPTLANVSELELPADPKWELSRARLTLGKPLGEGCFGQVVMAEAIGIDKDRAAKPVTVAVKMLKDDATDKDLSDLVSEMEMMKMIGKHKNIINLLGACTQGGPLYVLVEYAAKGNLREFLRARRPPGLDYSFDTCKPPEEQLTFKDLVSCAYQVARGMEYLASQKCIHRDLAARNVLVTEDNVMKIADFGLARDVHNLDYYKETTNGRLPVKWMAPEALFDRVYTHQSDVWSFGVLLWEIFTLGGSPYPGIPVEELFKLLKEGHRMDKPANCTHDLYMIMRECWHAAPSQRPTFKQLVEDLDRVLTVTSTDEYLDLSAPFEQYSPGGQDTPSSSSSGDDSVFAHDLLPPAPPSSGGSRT

Sequence of c-Abl (P00519 whole entry): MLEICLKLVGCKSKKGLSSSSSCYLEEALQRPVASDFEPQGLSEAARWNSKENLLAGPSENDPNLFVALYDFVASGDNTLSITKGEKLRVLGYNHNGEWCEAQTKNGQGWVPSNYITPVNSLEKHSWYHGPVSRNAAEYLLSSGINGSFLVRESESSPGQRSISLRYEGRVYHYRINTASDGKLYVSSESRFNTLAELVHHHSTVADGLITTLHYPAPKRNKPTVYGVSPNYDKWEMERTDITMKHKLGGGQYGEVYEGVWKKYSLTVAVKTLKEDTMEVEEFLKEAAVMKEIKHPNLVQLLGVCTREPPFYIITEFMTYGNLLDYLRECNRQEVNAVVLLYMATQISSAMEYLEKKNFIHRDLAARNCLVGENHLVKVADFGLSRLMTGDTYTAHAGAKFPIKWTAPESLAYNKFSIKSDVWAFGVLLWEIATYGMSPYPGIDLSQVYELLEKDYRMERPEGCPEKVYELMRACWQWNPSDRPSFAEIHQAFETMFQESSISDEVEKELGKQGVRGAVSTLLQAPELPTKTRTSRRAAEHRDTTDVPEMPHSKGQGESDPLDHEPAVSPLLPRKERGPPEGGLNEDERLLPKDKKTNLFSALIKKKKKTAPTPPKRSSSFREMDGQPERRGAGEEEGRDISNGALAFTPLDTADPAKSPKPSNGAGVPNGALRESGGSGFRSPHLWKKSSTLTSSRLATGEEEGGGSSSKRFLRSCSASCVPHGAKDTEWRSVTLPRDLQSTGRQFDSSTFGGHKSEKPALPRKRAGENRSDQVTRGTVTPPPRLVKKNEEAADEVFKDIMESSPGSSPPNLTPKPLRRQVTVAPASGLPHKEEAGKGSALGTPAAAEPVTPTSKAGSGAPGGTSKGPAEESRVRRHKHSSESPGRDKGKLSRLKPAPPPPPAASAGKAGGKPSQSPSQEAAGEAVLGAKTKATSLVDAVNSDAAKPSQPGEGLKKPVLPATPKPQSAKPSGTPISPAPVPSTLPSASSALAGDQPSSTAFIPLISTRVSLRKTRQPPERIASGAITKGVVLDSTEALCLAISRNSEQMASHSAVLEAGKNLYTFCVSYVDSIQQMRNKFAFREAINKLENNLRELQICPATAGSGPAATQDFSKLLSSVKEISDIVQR
T3 sequence (P35968 20-1356): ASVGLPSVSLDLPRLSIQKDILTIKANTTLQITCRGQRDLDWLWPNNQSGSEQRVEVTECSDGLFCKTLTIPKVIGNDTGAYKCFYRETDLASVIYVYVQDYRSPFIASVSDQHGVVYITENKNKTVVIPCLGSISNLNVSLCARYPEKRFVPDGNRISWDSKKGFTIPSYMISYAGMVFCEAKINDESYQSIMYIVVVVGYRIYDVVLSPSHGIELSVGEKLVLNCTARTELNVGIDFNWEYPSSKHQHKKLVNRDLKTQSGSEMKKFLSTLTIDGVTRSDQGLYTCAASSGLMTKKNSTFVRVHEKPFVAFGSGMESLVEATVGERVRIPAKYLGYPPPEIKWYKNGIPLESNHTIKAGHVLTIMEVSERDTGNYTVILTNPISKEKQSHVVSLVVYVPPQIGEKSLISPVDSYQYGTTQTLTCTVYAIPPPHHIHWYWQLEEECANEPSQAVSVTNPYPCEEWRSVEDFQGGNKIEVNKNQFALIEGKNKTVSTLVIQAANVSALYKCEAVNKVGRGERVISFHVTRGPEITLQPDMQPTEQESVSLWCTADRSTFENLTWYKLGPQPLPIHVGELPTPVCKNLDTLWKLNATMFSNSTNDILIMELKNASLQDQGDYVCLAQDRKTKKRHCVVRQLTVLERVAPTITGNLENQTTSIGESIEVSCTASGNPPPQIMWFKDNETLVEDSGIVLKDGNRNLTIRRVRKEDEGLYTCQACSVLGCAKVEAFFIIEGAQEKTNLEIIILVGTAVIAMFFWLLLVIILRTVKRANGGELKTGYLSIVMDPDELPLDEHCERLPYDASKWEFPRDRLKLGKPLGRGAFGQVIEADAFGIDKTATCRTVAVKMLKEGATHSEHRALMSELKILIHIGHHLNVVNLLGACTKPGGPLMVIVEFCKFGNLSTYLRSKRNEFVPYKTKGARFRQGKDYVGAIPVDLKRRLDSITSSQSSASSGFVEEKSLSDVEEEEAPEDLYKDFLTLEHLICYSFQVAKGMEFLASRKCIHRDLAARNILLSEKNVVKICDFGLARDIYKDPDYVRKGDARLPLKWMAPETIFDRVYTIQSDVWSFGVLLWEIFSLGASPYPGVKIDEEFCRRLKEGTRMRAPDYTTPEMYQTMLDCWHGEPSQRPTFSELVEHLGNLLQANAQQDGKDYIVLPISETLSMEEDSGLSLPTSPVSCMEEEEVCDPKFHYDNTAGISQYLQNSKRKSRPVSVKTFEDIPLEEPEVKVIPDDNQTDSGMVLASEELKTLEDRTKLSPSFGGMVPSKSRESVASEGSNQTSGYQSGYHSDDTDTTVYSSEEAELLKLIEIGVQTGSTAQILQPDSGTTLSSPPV
Sequence of PDGFRβ (P09619 33-1106, species assumed): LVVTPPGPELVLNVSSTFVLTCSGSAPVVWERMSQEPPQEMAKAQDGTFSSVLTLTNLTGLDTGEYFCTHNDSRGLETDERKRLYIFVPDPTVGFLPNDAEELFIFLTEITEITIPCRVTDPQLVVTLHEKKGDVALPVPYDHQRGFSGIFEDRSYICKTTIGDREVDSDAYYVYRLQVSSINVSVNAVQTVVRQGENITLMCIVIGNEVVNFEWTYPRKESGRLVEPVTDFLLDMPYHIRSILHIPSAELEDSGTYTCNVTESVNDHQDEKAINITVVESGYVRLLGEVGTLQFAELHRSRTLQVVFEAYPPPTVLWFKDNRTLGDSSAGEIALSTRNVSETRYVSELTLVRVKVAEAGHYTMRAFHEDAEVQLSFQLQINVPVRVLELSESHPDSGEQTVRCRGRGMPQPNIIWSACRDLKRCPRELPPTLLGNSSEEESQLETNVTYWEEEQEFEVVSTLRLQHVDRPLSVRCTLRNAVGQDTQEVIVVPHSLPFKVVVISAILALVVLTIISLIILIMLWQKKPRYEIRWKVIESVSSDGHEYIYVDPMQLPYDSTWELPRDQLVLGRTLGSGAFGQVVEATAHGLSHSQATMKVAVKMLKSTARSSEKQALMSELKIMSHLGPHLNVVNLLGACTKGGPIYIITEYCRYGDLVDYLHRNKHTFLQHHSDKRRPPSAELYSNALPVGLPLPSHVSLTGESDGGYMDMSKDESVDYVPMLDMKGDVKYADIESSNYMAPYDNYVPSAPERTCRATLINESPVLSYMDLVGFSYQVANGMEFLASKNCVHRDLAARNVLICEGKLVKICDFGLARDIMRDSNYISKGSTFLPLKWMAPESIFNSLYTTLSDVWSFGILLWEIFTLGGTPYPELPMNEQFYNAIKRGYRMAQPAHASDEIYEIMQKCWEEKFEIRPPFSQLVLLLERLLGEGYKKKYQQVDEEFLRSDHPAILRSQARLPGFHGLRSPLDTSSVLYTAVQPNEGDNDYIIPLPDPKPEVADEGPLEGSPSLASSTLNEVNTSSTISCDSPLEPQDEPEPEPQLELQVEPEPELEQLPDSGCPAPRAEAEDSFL

Cc1ccc(NC(=O)c2cccc(C(F)(F)F)c2)cc1NC(=O)N(CCN1CCOCC1)c1cc(N)ncn1 [Example 214, N-{3-[3-(6-Amino-pyrimidin-4-yl)-3-(2-morpholin-4-yl-ethyl)-ureido]-4-methyl-phenyl}-3-trifluoromethyl-benzamide]
GI50 [1]: 0.049 µM | IC50 [2]: 0.0004 µM | IC50 [3]: 0.0149 µM | IC50 [4]: 0.065 µM

Cc1ccc(NC(=O)c2ccc(CN3CCN(C)CC3)c(C(F)(F)F)c2)cc1NC(=O)N(C)c1cc(N)ncn1 [Example 194, N-{3-[3-(6-Amino-pyrimidin-4-yl)-3-methyl-ureido]-4-methyl-phenyl}-4-(4-methyl-piperazin-1-ylmethyl)-3-trifluoromethyl-benzamide]
inhibition at 10 µM [5]: 79 to 100% | inhibition at 10 µM [6]: 87 to 100% | melting point: 191.5 to 193 °C | inhibition at 10 µM [7]: 56 to 98%

Cc1ccc(NC(=O)c2cccc(C(F)(F)F)c2)cc1NC(=O)N(C)c1cc(Nc2ccc(N3CCN(C)CC3)cc2)ncn1 [Example 171, N-[4-Methyl-3-(3-methyl-3-{6-[4-(4-methyl-piperazin-1-yl)-phenyl-amino]-pyrimidin-4-yl}-ureido)-phenyl]-3-trifluoromethyl-benzamide]
inhibition at 10 µM [5]: 79 to 100% | inhibition at 10 µM [6]: 87 to 100% | melting point: 189.5 to 191 °C | inhibition at 10 µM [7]: 56 to 98%
